How the values were obtained:
[1] = Stable therapeutic warfarin dose by CYP2C9, VKORC1 and rs2108622 (CYP4F2) genotype, 424 subjects; format: in vivo, human
Description: The initial cohort was recruited at Marshfield Clinic, a multi-specialty group practice in Wisconsin as described.^6, 16 Patients were excluded from the study if they were known to have cancer, renal or hepatic insufficiency, or congestive heart failure.
The targeted human DMET 1.0 assay (Affymetrix, Inc, Santa Clara, Calif.) utilizes molecular inversion probes and GeneChip universal tag arrays to target 1228 single nucleotide polymorphisms (SNP) within 170 genes for metabolic enzymes and transport and regulatory proteins (Table 2).
The laboratory protocol followed the standard process described in the Targeted Genotyping System User Guide^25 except for a preliminary polymerase chain reaction (PCR)-amplification step aimed at resolving genotypes from 29 SNPs in regions containing pseudogenes and close homologues. GeneChip Targeted Genotyping Analysis software was used to make genotype calls and generate QC metrics including call rates, average signal, cluster quality, Hardy-Weinberg equilibrium, and reproducibility. […] Genotypes represented by the remaining 1217 SNP assays were called according to either predefined boundaries (derived from historical training sets) or dynamic clustering using the current data set. […] The remaining polymorphisms target rare mutations or SNPs prevalent in other racial groups.
VKORC1 genotypes were determined on 436 Marshfield Clinic samples as described^6 and on the remaining 61 samples using Invader® chemistry in a laboratory test developed with analyte specific reagents manufactured by Third Wave Technologies (TWT, Madison, Wis.). The laboratory developed assay used analyte-specific reagents that detect CYP2C9*2, CYP2C9*3, and VKORC1 (position −1639).^26

[2] = Pooled regression models of stable warfarin dose versus CYP4F2 rs2108622 genotype, three Caucasian cohorts; format: in vivo, human
Description: Therefore, we conducted multiple regression analyses only on the *1 genotypes (n=1009), and used the observed mean dose (log scale) as the predicted value for those with only non-wild CYP2C9 alleles (*2/*2, *2/*3, and *3/*3, n=42). Accordingly, our models that include genetic variables are composites of multiple regression and simple mean-based estimation approaches.
To assess the relative contribution of clinical and genetic factors, three models were developed using different sets of potential predictor variables: clinical factors only (gender, age, body surface area, and target international normalized ratio), clinical factors plus CYP2C9 and VKORC1, and clinical factors CYP2C9, VKORC1, and rs2108622. A modified step-down approach^29 was used, starting with a “full” model which included all potential predictors pertinent to that model, effects to allow the three study sites to differ, two-factor interactions (including those by site), and quadratic terms for age, body surface area, and target international normalized ratio. […] The regression models were finalized after evaluating residuals and excluding cases with large residuals as outliers (|Studentized Residual|>3).
The explanatory power for the three final models was assessed graphically and by using the adjusted r-squared (R^2adj). The R^2adj statistic measures the proportion of the total variability explained by the model with adjustment for the number of parameters in the model. The statistic was directly calculated to use all cases under analysis by pooling across both parts of the composite models and by applying the final regression model to any outliers dropped when estimating the parameters in the regression models.

## CC(=O)CC(c1ccccc1)c1c(O)c2ccccc2oc1=O (stereo not shown) [warfarin]
[1]; CYP2C9 *1/*1, VKORC1 CC, rs2108622 CC, N=13
  Geometric Mean warfarin dose: 20.0 mg/week
[1]; CYP2C9 *1/*1, VKORC1 CC, rs2108622 CT, N=18
  Geometric Mean warfarin dose: 21.1 mg/week
[1]; CYP2C9 *1/*1, VKORC1 CC, rs2108622 TT, N=2
  Geometric Mean warfarin dose: 34.5 mg/week
[1]; CYP2C9 *1/*1, VKORC1 CG, rs2108622 CC, N=68
  Geometric Mean warfarin dose: 29.6 mg/week
[1]; CYP2C9 *1/*1, VKORC1 CG, rs2108622 CT, N=46
  Geometric Mean warfarin dose: 31.9 mg/week
[1]; CYP2C9 *1/*1, VKORC1 CG, rs2108622 TT, N=12
  Geometric Mean warfarin dose: 37.9 mg/week
[1]; CYP2C9 *1/*1, VKORC1 GG, rs2108622 CC, N=64
  Geometric Mean warfarin dose: 39.5 mg/week
[1]; CYP2C9 *1/*1, VKORC1 GG, rs2108622 CT, N=41
  Geometric Mean warfarin dose: 45.1 mg/week
[1]; CYP2C9 *1/*1, VKORC1 GG, rs2108622 TT, N=8
  Geometric Mean warfarin dose: 47.3 mg/week
[1]; CYP2C9 *1/*2, VKORC1 CC, rs2108622 CC, N=3
  Geometric Mean warfarin dose: 16.6 mg/week
[1]; CYP2C9 *1/*2, VKORC1 CC, rs2108622 CT, N=5
  Geometric Mean warfarin dose: 19.6 mg/week
[1]; CYP2C9 *1/*2, VKORC1 CC, rs2108622 TT, N=1
  Geometric Mean warfarin dose: 17.5 mg/week
[1]; CYP2C9 *1/*2, VKORC1 CG, rs2108622 TT, N=5
  Geometric Mean warfarin dose: 31.0 mg/week
[1]; CYP2C9 *1/*2, VKORC1 GG, rs2108622 CC, N=13
  Geometric Mean warfarin dose: 29.7 mg/week
[1]; CYP2C9 *1/*2, VKORC1 GG, rs2108622 CT, N=17
  Geometric Mean warfarin dose: 34.1 mg/week
[1]; CYP2C9 *1/*3, VKORC1 CC, rs2108622 CT, N=2
  Geometric Mean warfarin dose: 21.3 mg/week
[1]; CYP2C9 *1/*3, VKORC1 CG, rs2108622 CC, N=13
  Geometric Mean warfarin dose: 21.5 mg/week
[1]; CYP2C9 *1/*3, VKORC1 GG, rs2108622 CC, N=5
  Geometric Mean warfarin dose: 22.3 mg/week
[1]; CYP2C9 *1/*3, VKORC1 GG, rs2108622 TT, N=3
  Geometric Mean warfarin dose: 34.5 mg/week
[1]; CYP2C9 *2/*2, VKORC1 CG, rs2108622 CC, N=1
  Geometric Mean warfarin dose: 22.0 mg/week
[1]; CYP2C9 *2/*2, VKORC1 CG, rs2108622 CT, N=1
  Geometric Mean warfarin dose: 28.0 mg/week
[1]; CYP2C9 *2/*2, VKORC1 CG, rs2108622 TT, N=1
  Geometric Mean warfarin dose: 35.0 mg/week
[1]; CYP2C9 *2/*2, VKORC1 GG, rs2108622 CC, N=1
  Geometric Mean warfarin dose: 18.5 mg/week
[1]; CYP2C9 *2/*2, VKORC1 GG, rs2108622 CT, N=1
  Geometric Mean warfarin dose: 37.5 mg/week
[1]; CYP2C9 *2/*2, VKORC1 GG, rs2108622 TT, N=1
  Geometric Mean warfarin dose: 35.0 mg/week
[1]; CYP2C9 *2/*3, VKORC1 CC, rs2108622 CC, N=1
  Geometric Mean warfarin dose: 20.0 mg/week
[1]; CYP2C9 *2/*3, VKORC1 CG, rs2108622 CT, N=1
  Geometric Mean warfarin dose: 22.5 mg/week
[1]; CYP2C9 *2/*3, VKORC1 CG, rs2108622 TT, N=1
  Geometric Mean warfarin dose: 15.0 mg/week
[1]; CYP2C9 *2/*3, VKORC1 GG, rs2108622 CC, N=3
  Geometric Mean warfarin dose: 15.3 mg/week
[1]; CYP2C9 *3/*3, VKORC1 CG, rs2108622 CC, N=1
  Geometric Mean warfarin dose: 6.5 mg/week
[1]; CYP2C9 *3/*3, VKORC1 CG, rs2108622 CT, N=1
  Geometric Mean warfarin dose: 4.5 mg/week
[2]; Marshfield
  increase in warfarin dose with each T allele (CYP4F2 effect, final pooled model): 12.8%
[2]; Marshfield cohort
  absolute contribution of CYP4F2 to stable warfarin dose: 26%
[2]; University of Florida
  increase in warfarin dose with each T allele (CYP4F2 effect, final pooled model): 6.8%
[2]; Washington University in St. Louis
  increase in warfarin dose with each T allele (CYP4F2 effect, final pooled model): 3.8%
[2]; Washington University in St. Louis cohort
  absolute contribution of CYP4F2 to stable warfarin dose: 8%
[2]; pooled analyses, three Caucasian cohorts stabilized on warfarin
  difference in warfarin dose requirement, two TT alleles versus two CC alleles of CYP4F2 rs2108622: about 1 mg/day

Source: patent publication US20110189675A1, “Method For Administering Anticoagulation Therapy” (Marshfield Clinic, priority 2007, published 2011)
